# Measured values reported in patent US20220022465A1, “METHODS AND COMPOSITIONS FOR REPELLING BIRDS IN CROP PLANTS” (Bayer Aktiengesellschaft, priority 2019, published 2022).
# Tested on: pigeons
# Assay: Third repellency test 3.3, compared with pigeons offered untreated seeds in parallel at Day 0
# Assay type: in vivo
# Excerpt: The test procedure was however slightly changed compared to the trials in Examples 3.1 and 3.2. Indeed, instead of simply comparing the effect of the tested compositions against the untreated seeds offered to the pigeons at Day-1, here a set of the pigeons was also offered untreated seeds at Day 0 in parallel to the set of pigeons being offered the seeds treated with a composition. The results for the set of pigeons having received the treated seeds are therefore compared to the results for the set of pigeons having received the untreated seeds in parallel at Day 0 (instead of the results for the set of the pigeons having received the untreated seeds at Day-1). Two trials under this setting have been performed with different compositions.
# Trial 1: • Black pepper at the dose of 40.5 ml/50000 corn seeds • Garlic at the dose of 4.5 ml/50000 corn seeds • Mixture of Black pepper (90%) and garlic (10%) at the dose of 45 ml/50000 corn seeds
# Trial 2: • Black pepper at the dose of 40.5 ml/50000 corn seeds • Garlic at the dose of 4.5 ml/50000 corn seeds • Mixture of Black pepper (90%) and garlic (10%) at the dose of 45 ml/50000 corn seeds • Thiram at the dose of 45 ml/50000 corn seeds
smiles,measurement,setting,value
CN(C)C(=S)SSC(=S)N(C)C [Thiram],Percentage (%) of reduction of feed consumption,"Trial 2, 45 ml per 50000 maize seeds",65%
same,"Repellency effect on seed consumption, in words","test 3.3, doses of Table 4",good repellency effect on seed consumption
